# In US12403132B2, “Methods of treating bone marrow failure syndromes and compositions for use in the same” (The Board of Trustees of the Leland Stanford Junior …, priority 2020, dated 2025):
# Experiments:
# NLK 3′UTR = experiment: Luciferase fused to NLK 3′UTR in differentiating HSPCs; type: cell-based, human
# Description: We generated a series of truncated NLK 3′UTRs fused to the luciferase gene and transduced them into control and RPS19-insufficient differentiating HSPCs. Cells were treated with increasing concentrations of ginsenoside Rb1 or metformin and luciferase activity assessed.
# RPS19 = RPS19 expression in differentiating HSPCs (qRT-PCR); type: cell-based, human; conditions: differentiating RPS19-insufficient HSPCs
# Excerpt: As the suppression of NLK by miRNAs has been documented, we sought to screen a number of common nutritional supplements that have been documented to modulate miRNAs in their ability to improve erythroid expansion in an in vitro model of DBA. To induce ribosomal insufficiency, CD34+ HSPCs from human cord blood were transduced with a shRNA against RPS19 that reduced RPS19 expression by approximately 50% to recapitulate decreased function due to RPS19 mutations in DBA patients. As described above, metformin improves erythroid expansion by miRNA-mediated suppression of NLK mRNA expression and was therefore included as a positive control. […] Efficacy of shRNA against RPS19 was quantified by qRT-PCR. […] To determine if the ginsenoside Rb1 effect was through the inhibition of NLK, we treated differentiating HSPCs with ginsenoside Rb1 that were transduced with a non-targeting control or siRNA against NLK. Ginsenoside R1 alone or siRNA against NLK alone improved erythroid expansion by 2.7- and 5.1-fold, respectively.
# NLK [1] = experiment: NLK expression in differentiating human progenitors (qRT-PCR, Western blot); type: cell-based; design: reduction of endogenous NLK expression: concentration or dose not given beside the values
# NLK [2] = biological target: T1, NLK (Homo sapiens, UniProt Q9UBE8); experiment: Kinase assay of NLK immunopurified from treated differentiating human progenitors; type: cell-based; design: 5000 cells per treatment were lysed and immunopurified NLK was subjected to in vitro kinase assay; endogenous in cells; host or cells: human cord blood CD34+ HSPCs transduced with shLuc / shRPS19 / shRPL11, differentiating in erythroid medium; conditions: NLK from ginsenoside Rb1-treated RPS19-insufficient progenitors
# T1 sequence (Q9UBE8 1-527): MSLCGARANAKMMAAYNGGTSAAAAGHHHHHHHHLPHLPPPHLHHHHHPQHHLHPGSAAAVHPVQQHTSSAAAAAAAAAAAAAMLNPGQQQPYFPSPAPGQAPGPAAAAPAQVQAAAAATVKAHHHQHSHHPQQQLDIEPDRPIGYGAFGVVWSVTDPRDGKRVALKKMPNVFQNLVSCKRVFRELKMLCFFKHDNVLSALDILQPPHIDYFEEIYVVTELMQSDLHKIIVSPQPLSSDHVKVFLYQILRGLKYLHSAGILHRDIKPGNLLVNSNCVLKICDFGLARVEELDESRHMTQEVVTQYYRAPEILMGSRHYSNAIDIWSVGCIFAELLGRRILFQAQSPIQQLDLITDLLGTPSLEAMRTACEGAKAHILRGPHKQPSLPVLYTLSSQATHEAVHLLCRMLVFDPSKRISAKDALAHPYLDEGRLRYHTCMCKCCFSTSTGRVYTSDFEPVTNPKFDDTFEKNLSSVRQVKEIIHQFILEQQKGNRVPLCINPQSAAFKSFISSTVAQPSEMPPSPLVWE
# [3] = tested on: zebrafish (Danio rerio) embryos; experiment: Zebrafish rps19 morpholino model, o-dianisidine hemoglobin staining; type: in vivo
# Excerpt: FIG. 11. […] Statistics: two-tailed Student's t test, significant *P<0.05
# murine NLK 3′UTR = experiment: Luciferase fused to murine NLK 3′UTR in K562 cells; type: cell-based, mouse; conditions: transient transfection in K562, metformin 72 hrs
# miRNA species = experiment: miRNA expression by qRT-PCR in differentiating murine Lin-Kit+ progenitors; type: cell-based, mouse; conditions: metformin
# Description: FIG. 14. Metformin-mediated upregulation of miR-26a in human progenitors suppresses NLK expression. (Panel A) Human CD34+ (upper) and murine Lin-Kit+ (lower) progenitors were differentiated for 8 days in the presence or absence of metformin and the levels of indicated miRNAs were assessed by qRT-PCR. (Panel B) K562 cells stably expressing the luciferase gene coupled to the NLK 3′UTR were mock transfected, transfected with indicated miRNA mimetics, or treated with metformin, and cultured in the presence or absence of metformin for 72 hrs. After lysis, luciferase activity was determined and endogenous NLK and GAPDH protein expression was analyzed by Western blot. (Panel C) K562 cells were mock transfected, or transfected with either miR-34 or miR-26 sponges, prior to being left untreated or treated with metformin for 72 hrs. Lysed cells were subjected to luciferase assay and western blotting to examine NLK and GAPDH protein expression. […] Statistics: two-tailed Student's t test, significant *P<0.05
# MessengerRNA was quantified as described (5). MicroRNA was quantified using TaqMan® Small RNA Assays (Applied Biosystems) as per manufacturer's directions and normalized to snoRNA.
# SATB1 3′UTR = experiment: Luciferase alone or fused to SATB1 3′UTR in K562 cells; type: cell-based, human; conditions: K562, 0.5-50 mM, 72 hrs
# Description: FIG. 12. NLK 3′UTR facilitates metformin-mediated NLK suppression. (Panel A) K562 cells stabling expressing luciferase alone (top portion), luciferase expressed behind a minimal promoter and the NLK proximal promoter (2nd portion), luciferase immediately upstream of the human NLK 3′UTR (3rd portion) or luciferase with the SATB1 3′UTR (bottom portion) were grown in the presence of 0, 0.5, 5.0 or 50.0 mM of metformin for 72 hrs. Cell were pelleted and either processed for luciferase assay (left portion) or western blot analysis of endogenous NLK (upper right portion) or GAPDH (lower right portion). (Panel B) Luciferase immediately upstream of the human (upper), murine (middle) and zebrafish (lower) NLK 3′UTR were transiently transfected into human K562 (left) and cultured with indicated concentrations of metformin for 72 hrs. Lysates were assessed for luciferase activity and endogenous NLK and GAPDH protein expression by Western blotting. […] Statistics: two-tailed Student's t test, significant *P<0.05
# In parallel with measuring luciferase activity, the response of endogenous NLK protein expression was monitored by Western blot analysis with a high degree of correlation.
# [4] = ginsenoside Rb1, metformin, alone and combined
Structure (SMILES),reduction of luciferase activity (NLK 3′UTR) (NLK 3′UTR; 50 mM ginsenoside Rb1) [%],influence on RPS19 expression (RPS19),"reduction of NLK protein (NLK [1]; differentiating HSPCs, 5 mM) [%]",suppression of NLK expression (NLK [1]; [4]) [%],reduction of endogenous NLK expression (NLK [1]; ginsenoside Rb1-treated differentiating HSPCs (miRNA sponge experiment)) [%],"suppression of NLK expression (NLK [1]; miRNA species transduced into differentiating HSPCs, ginsenoside Rb1 for comparison) [%]",reduced NLK kinase activity (NLK [2]) [%],reduction of luciferase activity (NLK 3′UTR) (NLK 3′UTR; metformin) [%],heart conditions ([3]; 20 mM metformin),"O'dianisidine (hemoglobin) staining ([3]; 20 mM metformin from 4 to 5 hpf, day 3)","decrease of luciferase activity, murine 3′UTR (murine NLK 3′UTR) [%]",upregulation of miRNA species (miRNA species),metformin sensitivity of luciferase alone or fused with SATB1 3′UTR (SATB1 3′UTR)
CC(C)=CCC[C@](C)(O[C@@H]1O[C@H](CO[C@@H]2O[C@H](CO)[C@@H](O)[C@H](O)[C@H]2O)[C@@H](O)[C@H](O)[C@H]1O)[C@H]1CC[C@]2(C)[C@@H]1[C@H](O)C[C@@H]1[C@@]3(C)CC[C@H](O[C@@H]4O[C@H](CO)[C@@H](O)[C@H](O)[C@H]4O[C@@H]4O[C@H](CO)[C@@H](O)[C@H](O)[C@H]4O)C(C)(C)[C@@H]3CC[C@]12C [ginsenoside Rb1],35.9,did not influence,31.5,34.6,44.8,34.6,44.8,,,,,,
CN(C)C(=N)N=C(N)N [metformin],,,,59.4,,,,67.5,persisted,dramatically restored,61.6,none of the miRNA species examined demonstrated significant upregulation,did not result in metformin sensitivity
